Measurements as given in publication PMC7714403 (JCI Insight, 2020).

What was measured:
Erk2 = Erk2 (Homo sapiens, UniProt P28482); test: KiNativ, OCI cells live cell; assay type: cell-based; conditions: 2 h, labeling site Lys2, peptide […]
PITSLRE = PITSLRE (Homo sapiens, UniProt P21127); test: KiNativ, OCI cells live cell; assay type: cell-based; conditions: 2 h, labeling site Lys2, peptide […]
MSK2 domain1 = target: T1, MSK2 domain1 (Homo sapiens, UniProt O75676); test: KiNativ, OCI cells live cell; assay type: cell-based; conditions: 2 h
T1 construct: MSK2 domain1
T1 sequence (O75676 whole entry, the tested form may be a part): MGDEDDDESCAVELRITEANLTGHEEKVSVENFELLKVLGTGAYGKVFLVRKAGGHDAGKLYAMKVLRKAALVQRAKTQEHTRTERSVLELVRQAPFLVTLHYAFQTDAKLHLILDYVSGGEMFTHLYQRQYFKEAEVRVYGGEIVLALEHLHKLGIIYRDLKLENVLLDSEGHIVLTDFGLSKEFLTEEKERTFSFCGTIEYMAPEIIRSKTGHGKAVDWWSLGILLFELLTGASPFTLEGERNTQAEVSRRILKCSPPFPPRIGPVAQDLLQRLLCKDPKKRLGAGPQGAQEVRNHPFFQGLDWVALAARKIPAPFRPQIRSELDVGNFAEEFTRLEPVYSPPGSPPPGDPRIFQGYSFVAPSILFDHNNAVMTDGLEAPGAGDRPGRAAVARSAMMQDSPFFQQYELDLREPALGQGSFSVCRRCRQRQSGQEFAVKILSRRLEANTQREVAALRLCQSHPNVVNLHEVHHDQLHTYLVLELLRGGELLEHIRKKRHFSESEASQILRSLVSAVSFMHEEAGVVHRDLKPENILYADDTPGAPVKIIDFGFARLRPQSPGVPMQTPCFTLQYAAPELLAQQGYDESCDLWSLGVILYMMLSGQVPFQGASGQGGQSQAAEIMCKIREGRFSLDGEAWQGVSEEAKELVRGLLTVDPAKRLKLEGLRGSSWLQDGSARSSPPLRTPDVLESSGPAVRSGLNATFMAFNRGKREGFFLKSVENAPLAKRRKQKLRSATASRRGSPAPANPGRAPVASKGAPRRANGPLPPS

MELK = MELK (Homo sapiens, UniProt Q14680); test: KiNativ, OCI cells live cell; assay type: cell-based; conditions: 2 h, labeling site Lys2, peptide […]
FLT3 D835Y = target: T2, FLT3 D835Y (Homo sapiens, UniProt P36888, D835Y); test: Kinase assay by Reaction Biology; assay type: biochemical; conditions: enzymatic kinase assay
T2 construct: purchased Eurofins DiscoverX

MST3 = MST3 (Homo sapiens, UniProt Q9Y6E0); test: KiNativ, OCI cells live cell; assay type: cell-based; conditions: labeling site Lys2, peptide DIKAANVLLSEHGEVK
IRAK3 = target: T3, IRAK3 (Homo sapiens, UniProt Q9Y616); test: KiNativ, OCI cells live cell; assay type: cell-based; conditions: 2 h
T3 sequence (Q9Y616 1-596): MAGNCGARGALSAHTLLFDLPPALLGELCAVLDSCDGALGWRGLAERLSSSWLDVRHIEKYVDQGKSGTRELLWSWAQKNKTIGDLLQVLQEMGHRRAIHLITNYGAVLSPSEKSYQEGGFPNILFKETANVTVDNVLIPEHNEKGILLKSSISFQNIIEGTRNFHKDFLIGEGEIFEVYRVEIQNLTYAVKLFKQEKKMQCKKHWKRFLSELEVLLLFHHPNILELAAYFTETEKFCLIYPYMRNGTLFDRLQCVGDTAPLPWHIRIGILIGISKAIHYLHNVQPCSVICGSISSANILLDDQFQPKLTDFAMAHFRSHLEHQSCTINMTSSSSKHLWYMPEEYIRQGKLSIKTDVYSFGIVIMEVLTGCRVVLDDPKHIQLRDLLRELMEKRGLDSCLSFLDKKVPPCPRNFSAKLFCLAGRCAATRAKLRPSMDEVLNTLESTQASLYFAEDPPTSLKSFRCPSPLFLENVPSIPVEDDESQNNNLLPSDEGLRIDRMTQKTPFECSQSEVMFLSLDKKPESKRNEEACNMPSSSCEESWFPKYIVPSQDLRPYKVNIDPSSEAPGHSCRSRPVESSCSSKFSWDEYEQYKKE

PI4KA = PI4KA (Homo sapiens, UniProt P42356); test: KiNativ, OCI cells live cell; assay type: cell-based; conditions: 2 h, labeling site ATP, peptide […]
Sequence of PI4KA (P42356 whole entry): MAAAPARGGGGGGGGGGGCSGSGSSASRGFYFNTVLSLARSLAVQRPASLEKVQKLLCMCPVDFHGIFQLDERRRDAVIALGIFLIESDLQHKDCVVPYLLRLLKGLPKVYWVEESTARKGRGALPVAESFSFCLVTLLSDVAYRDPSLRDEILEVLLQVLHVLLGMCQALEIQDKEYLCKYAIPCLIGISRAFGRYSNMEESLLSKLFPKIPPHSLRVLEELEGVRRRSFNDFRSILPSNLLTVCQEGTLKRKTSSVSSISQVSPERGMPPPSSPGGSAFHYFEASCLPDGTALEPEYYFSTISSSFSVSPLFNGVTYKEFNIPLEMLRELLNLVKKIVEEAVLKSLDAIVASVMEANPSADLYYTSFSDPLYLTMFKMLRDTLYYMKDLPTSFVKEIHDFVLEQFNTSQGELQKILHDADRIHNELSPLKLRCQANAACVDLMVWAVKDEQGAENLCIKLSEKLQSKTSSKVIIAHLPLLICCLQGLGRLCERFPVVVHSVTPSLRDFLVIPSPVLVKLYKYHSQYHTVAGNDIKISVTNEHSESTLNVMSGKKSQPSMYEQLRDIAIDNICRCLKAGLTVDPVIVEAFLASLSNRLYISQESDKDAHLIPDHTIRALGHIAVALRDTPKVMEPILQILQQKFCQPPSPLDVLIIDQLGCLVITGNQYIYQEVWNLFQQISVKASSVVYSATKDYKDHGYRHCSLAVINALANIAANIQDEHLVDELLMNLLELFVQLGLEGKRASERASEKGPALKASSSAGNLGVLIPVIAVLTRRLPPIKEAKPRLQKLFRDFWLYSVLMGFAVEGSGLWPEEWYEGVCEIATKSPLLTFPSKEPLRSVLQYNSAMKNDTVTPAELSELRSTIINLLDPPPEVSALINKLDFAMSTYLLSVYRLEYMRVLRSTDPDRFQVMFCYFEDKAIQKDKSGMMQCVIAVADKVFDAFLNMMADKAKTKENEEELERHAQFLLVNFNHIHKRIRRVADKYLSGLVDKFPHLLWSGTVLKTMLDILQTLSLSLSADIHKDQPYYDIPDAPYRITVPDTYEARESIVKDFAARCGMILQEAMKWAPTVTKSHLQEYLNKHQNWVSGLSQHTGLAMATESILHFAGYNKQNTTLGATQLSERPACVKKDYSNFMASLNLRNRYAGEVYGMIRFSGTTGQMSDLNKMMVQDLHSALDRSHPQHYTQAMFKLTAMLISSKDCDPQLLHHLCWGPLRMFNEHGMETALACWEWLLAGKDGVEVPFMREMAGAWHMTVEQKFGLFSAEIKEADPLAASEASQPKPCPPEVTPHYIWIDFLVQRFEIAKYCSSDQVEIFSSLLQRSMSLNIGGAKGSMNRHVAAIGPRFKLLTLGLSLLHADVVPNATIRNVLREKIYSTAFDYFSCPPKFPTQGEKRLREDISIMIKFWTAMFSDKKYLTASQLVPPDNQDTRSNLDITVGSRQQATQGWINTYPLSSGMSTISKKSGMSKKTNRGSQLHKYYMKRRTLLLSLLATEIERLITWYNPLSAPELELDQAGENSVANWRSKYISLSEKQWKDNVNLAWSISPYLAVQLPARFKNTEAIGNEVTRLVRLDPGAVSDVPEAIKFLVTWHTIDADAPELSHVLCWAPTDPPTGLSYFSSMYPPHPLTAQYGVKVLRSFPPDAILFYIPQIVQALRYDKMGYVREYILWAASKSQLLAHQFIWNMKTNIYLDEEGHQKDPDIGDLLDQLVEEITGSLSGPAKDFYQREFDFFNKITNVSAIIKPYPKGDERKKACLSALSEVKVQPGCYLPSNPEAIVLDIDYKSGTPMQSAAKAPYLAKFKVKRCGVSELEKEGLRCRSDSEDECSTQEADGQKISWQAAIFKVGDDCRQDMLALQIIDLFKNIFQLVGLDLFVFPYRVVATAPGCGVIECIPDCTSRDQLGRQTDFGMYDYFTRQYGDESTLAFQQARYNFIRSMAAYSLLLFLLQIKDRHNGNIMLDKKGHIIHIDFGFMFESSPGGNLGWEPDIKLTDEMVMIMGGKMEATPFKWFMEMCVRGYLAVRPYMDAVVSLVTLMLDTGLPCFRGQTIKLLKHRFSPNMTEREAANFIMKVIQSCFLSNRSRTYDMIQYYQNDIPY

TBK1 = TBK1 (Homo sapiens, UniProt Q9UHD2); test: KiNativ, OCI cells live cell; assay type: cell-based; conditions: 2 h, labeling site Lys1, peptide […]
Sequence of TBK1 (Q9UHD2 whole entry): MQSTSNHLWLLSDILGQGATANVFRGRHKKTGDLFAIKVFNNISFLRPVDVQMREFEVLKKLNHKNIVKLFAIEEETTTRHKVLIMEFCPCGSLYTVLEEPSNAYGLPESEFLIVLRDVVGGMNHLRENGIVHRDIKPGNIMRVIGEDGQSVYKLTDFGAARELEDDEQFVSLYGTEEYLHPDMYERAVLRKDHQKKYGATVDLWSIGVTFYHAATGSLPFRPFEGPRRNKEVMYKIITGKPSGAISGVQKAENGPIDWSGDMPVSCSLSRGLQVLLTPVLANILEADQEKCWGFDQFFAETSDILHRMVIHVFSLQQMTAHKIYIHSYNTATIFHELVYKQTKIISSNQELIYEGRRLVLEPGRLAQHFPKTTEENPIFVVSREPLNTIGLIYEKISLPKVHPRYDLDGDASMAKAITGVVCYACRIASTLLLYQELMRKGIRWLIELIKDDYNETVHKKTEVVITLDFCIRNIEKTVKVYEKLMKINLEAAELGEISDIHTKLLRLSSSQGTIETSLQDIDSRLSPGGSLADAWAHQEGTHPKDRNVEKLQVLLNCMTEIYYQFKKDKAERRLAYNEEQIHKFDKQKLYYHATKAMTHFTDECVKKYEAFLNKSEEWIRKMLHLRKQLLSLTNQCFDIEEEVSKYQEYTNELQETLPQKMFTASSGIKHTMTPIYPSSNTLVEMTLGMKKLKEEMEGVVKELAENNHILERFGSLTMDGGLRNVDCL

p38d, p38g = test: KiNativ, OCI cells live cell; assay type: cell-based, human; conditions: labeling site Lys2, peptide DLKPGNLAVNEDCELK
PCTAIRE1, PCTAIRE3 = test: KiNativ, OCI cells live cell; assay type: cell-based, human; conditions: labeling site Lys2, peptide DLKPQNLLINER
[1] = system: RSK1 domain1, RSK2 domain1, RSK3 domain1; test: KiNativ, OCI cells live cell; assay type: cell-based, human; conditions: labeling site Lys2, peptide DLKPENILLDEEGHIK
CaMK4 = CaMK4 (Homo sapiens, UniProt Q16566); test: KiNativ, OCI cells live cell; assay type: cell-based; conditions: 2 h, labeling site Lys2, peptide […]
Sequence of CaMK4 (Q16566 whole entry): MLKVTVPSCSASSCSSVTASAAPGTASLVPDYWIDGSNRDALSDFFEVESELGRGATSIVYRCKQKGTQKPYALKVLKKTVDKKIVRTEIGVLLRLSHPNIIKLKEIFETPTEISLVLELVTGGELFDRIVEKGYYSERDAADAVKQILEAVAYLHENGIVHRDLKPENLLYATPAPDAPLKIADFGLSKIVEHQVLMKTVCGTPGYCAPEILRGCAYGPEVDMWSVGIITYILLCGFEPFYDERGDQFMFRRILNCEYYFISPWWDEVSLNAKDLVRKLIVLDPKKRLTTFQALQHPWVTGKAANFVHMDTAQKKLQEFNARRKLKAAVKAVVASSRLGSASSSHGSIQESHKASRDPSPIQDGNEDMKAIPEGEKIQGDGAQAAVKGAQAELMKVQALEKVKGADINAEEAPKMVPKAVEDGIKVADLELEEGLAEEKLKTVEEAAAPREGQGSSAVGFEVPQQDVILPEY

CHED = CHED (Homo sapiens, UniProt Q14004); test: KiNativ, OCI cells live cell; assay type: cell-based; conditions: labeling site Lys2, peptide DIKCSNILLNNR
GCK = target: T4, GCK (Homo sapiens, UniProt Q12851); test: KdELECT binding assay; design: purchased Eurofins DiscoverX
T4 sequence (Q12851 1-820): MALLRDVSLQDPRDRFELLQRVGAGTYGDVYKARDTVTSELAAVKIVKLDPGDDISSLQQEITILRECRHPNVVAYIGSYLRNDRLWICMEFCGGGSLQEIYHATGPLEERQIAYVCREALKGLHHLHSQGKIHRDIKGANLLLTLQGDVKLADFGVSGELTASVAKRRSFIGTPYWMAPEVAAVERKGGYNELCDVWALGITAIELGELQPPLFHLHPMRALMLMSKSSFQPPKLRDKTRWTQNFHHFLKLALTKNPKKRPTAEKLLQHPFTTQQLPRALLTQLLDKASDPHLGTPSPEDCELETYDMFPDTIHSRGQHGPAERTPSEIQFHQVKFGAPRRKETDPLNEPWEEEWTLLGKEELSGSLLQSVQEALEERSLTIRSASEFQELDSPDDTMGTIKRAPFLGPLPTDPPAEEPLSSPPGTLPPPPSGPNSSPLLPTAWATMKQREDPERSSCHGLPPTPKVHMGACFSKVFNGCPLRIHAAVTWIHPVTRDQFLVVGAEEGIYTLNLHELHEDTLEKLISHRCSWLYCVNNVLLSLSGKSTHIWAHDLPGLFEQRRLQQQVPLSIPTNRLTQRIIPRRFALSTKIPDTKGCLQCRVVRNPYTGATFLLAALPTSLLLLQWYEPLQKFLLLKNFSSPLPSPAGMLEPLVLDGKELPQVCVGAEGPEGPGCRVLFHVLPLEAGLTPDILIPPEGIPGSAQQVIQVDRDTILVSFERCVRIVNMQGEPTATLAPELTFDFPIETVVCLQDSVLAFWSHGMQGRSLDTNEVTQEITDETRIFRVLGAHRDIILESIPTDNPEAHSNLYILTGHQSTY

HCK = HCK (Homo sapiens, UniProt P08631); test: KiNativ, OCI cells live cell; assay type: cell-based; conditions: 2 h, labeling site Activation Loop, peptide […]
Sequence of HCK (P08631 whole entry): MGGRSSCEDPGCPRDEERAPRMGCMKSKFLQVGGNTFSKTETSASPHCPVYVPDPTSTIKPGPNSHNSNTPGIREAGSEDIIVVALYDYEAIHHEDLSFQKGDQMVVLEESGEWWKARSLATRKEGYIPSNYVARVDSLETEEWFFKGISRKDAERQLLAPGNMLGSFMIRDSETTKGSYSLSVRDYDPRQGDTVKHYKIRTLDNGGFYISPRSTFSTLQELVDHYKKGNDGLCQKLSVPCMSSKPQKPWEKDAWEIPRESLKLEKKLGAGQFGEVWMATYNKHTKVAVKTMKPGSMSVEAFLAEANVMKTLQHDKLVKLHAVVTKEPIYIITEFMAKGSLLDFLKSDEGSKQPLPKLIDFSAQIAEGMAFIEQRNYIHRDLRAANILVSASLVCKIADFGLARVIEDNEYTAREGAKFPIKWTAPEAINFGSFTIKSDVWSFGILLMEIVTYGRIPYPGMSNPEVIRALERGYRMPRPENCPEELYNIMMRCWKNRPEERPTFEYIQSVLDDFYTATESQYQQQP

ROCK1 = ROCK1 (Homo sapiens, UniProt Q13464); test: KiNativ, OCI cells live cell; assay type: cell-based; conditions: 2 h, labeling site Other, peptide […]
MSK1 domain1 = target: T5, MSK1 domain1 (Homo sapiens, UniProt O75582); test: KiNativ, OCI cells live cell; assay type: cell-based; conditions: 2 h, labeling site Lys2, peptide […]
T5 construct: MSK1 domain1

MAST1, MAST2 = test: KiNativ, OCI cells live cell; assay type: cell-based, human; conditions: labeling site Lys2, peptide DLKPDNLLITSMGHIK
CSF1R = target: T6, CSF1R (Homo sapiens, UniProt P07333); test: KdELECT binding assay
T6 construct: purchased Eurofins DiscoverX

Sequence of Erk2 (P28482 whole entry): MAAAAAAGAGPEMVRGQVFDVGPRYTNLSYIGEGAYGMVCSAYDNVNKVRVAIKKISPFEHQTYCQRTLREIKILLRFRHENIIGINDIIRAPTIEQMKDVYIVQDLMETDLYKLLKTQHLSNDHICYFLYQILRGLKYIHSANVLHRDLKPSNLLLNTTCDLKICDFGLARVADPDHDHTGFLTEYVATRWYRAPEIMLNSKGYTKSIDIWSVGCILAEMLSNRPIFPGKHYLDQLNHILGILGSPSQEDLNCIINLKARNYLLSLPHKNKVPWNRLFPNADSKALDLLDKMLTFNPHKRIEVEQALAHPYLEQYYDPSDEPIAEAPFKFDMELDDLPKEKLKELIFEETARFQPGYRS

CN1CCN(Cc2ccc(Nc3ncc(Cl)c(Nc4ccccc4S(=O)(=O)N(C)C)n3)cc2)CC1 [TP-0903]
inhibition at 0.1 µM (Erk2): 22.7% | inhibition at 0.1 µM (PITSLRE): -18.9% | inhibition at 0.1 µM (MSK2 domain1; labeling site Lys1, peptide LYAMKVLR): 21.8% | inhibition at 0.1 µM (MSK2 domain1; labeling site Lys2, peptide DLKLENVLLDSEGHIVLTDFGLSK): 12.3% | inhibition at 0.1 µM (MELK): 13.5% | IC50 (FLT3 D835Y): 0.12 nM | Inhibition (MST3): 35.2% | inhibition at 0.1 µM (IRAK3; labeling site Lys1, peptide VEIQNLTYAVKLFK): 87.9% | inhibition at 0.1 µM (IRAK3; labeling site Protein Kinase Domain, peptide SHLEHQSCTINMTSSSSKHLWYMPEEYIR): 94.9% | inhibition at 0.1 µM (PI4KA): -14.6% | inhibition at 0.1 µM (TBK1): 83% | Inhibition (p38d, p38g): -17.4% | Inhibition (PCTAIRE1, PCTAIRE3): 79.0% | Inhibition [1]: 54.4% | inhibition at 0.1 µM (CaMK4): -2.6% | Inhibition (CHED): 14.4% | Kd (GCK): 1.8 nM | inhibition at 0.1 µM (HCK): -3.8% | inhibition at 0.1 µM (ROCK1): 25% | inhibition at 0.1 µM (MSK1 domain1): 8.3% | Inhibition (MAST1, MAST2): -5.0% | Kd (CSF1R): 16 nM
